The subject of this assay is BDF1 mice, P388 leukemia ip, median survival T/C. As to the kind of experiment: NCI In Vivo Anticancer Drug Screen. Data for tumor model P388 Leukemia (intraperitoneal) in B6D2F1 (BDF1) mice. The following applies: endpoint: median survival time, higher = longer survival. The gist of the method:
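Steps: implant the tumour, treat one group with compound and another with vehicle, record survival, then divide treated by control.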

[1] abbreviates: dose: 50.0 mg/kg/injection, schedule: Q01DX009 (ip), vehicle: saline with Tween-80.
Where [2] appears, read: dose: 100.0 mg/kg/injection, schedule: Q01DX009 (ip), vehicle: saline with Tween-80.
[3] abbreviates: dose: 200.0 mg/kg/injection, schedule: Q01DX009 (ip), vehicle: saline with Tween-80.
The mark [4] stands for this setting: dose: 100.0 mg/kg/injection, schedule: Q04DX003 (ip), vehicle: saline sonified.
The mark [5] stands for this setting: dose: 200.0 mg/kg/injection, schedule: Q04DX003 (ip), vehicle: saline sonified.
Setting [6] is: dose: 100.0 mg/kg/injection, schedule: Q04DX003 (ip), vehicle: saline with Tween-80.
Setting [7] is: dose: 200.0 mg/kg/injection, schedule: Q04DX003 (ip), vehicle: saline with Tween-80.
The mark [8] stands for this setting: dose: 400.0 mg/kg/injection, schedule: Q01DX009 (ip), vehicle: saline with Tween-80.
Where [9] appears, read: dose: 400.0 mg/kg/injection, schedule: Q04DX003 (ip), vehicle: saline with Tween-80.
Where [10] appears, read: dose: 100.0 mg/kg/injection, schedule: Q01DX009 (ip), vehicle: Klucel (hydroxypropylcellulose) (HPC).
[11] abbreviates: dose: 100.0 mg/kg/injection, schedule: Q04DX003 (ip), vehicle: Klucel (hydroxypropylcellulose) (HPC).
[12] abbreviates: dose: 200.0 mg/kg/injection, schedule: Q01DX009 (ip), vehicle: Klucel (hydroxypropylcellulose) (HPC).
Setting [13] is: dose: 200.0 mg/kg/injection, schedule: Q04DX003 (ip), vehicle: Klucel (hydroxypropylcellulose) (HPC).
[14] abbreviates: dose: 400.0 mg/kg/injection, schedule: Q01DX009 (ip), vehicle: Klucel (hydroxypropylcellulose) (HPC).
Setting [15] is: dose: 400.0 mg/kg/injection, schedule: Q04DX003 (ip), vehicle: Klucel (hydroxypropylcellulose) (HPC).

Several values for one entry are separate records, joined by “and”; a condition that tells them apart may be missing. Equal entries are not always repeated. Toxic doses and inconclusive results are not listed.

As to `C[N+]1(Cc2c[nH]c3ccsc23)CCCCC1`, the T/C is, setting by setting: (dose: 3.0 mg/kg/injection, schedule: Q01DX009 (ip), vehicle: saline with Tween-80) 87 % of control; (dose: 3.0 mg/kg/injection, schedule: Q04DX003 (ip), vehicle: saline with Tween-80) 104 % of control; (dose: 6.0 mg/kg/injection, schedule: Q01DX009 (ip), vehicle: saline with Tween-80) 91 % of control; (dose: 6.0 mg/kg/injection, schedule: Q04DX003 (ip), vehicle: saline with Tween-80) 104 % of control; (dose: 12.0 mg/kg/injection, schedule: Q01DX009 (ip), vehicle: saline with Tween-80) 100 % of control; (dose: 12.0 mg/kg/injection, schedule: Q04DX003 (ip), vehicle: saline with Tween-80) 100 % of control.
For `O=C1NC(c2cccc3c2OCO3)N=C2Oc3ccccc3C=C12` (centres undefined), the T/C runs as follows: under setting [1], 98 % of control; under setting [2], 93 % of control; under setting [3], 93 % of control.
As to `CCCCCCCCCCCCCCCCNc1cccc2ccccc12`, the T/C by setting is: under setting [4], 86 % of control; under setting [5], 104 % of control; (dose: 400.0 mg/kg/injection, schedule: Q04DX003 (ip), vehicle: saline sonified) 95 % of control.
For the compound `O=C(O)CCNCc1ccccc1`, the T/C is, setting by setting: (dose: 25.0 mg/kg/injection, schedule: Q01DX009 (ip), vehicle: saline) 93 % of control; (dose: 50.0 mg/kg/injection, schedule: Q01DX009 (ip), vehicle: saline) 108 % of control; (dose: 100.0 mg/kg/injection, schedule: Q01DX009 (ip), vehicle: saline) 117 % of control; (dose: 200.0 mg/kg/injection, schedule: Q01DX009 (ip), vehicle: saline) 88 % of control.
With `[Cl][Pt+2]([Cl])([Cl])[Cl].[Na+].[S-]c1ncnc2nc[nH]c12.[S-]c1ncnc2nc[nH]c12`, the T/C is 120 % of control under setting [2]; 100 % of control under setting [6]; 100 % of control under setting [7]; 113 % of control (dose: 300.0 mg/kg/injection, schedule: Q01DX009 (ip), vehicle: saline with Tween-80); 112 % of control under setting [8]; 122 % of control under setting [9].
As for `Cc1cc(C)cc(C(C)C)c1`, the T/C is, setting by setting: under setting [1], 101 % of control; under setting [2], 116 % of control; under setting [3], 122 % of control.
For the compound `CC(C(=O)O)N1C(=O)c2ccccc2C1=O` (centres undefined), the T/C is 109 % of control under setting [10]; 100 % of control under setting [11]; 109 % of control under setting [12]; 104 % of control under setting [13]; 118 % of control under setting [14]; 100 % of control under setting [15].
Turning to `CCN(CC)P(=O)(N1CC1C)N1CC1C` (centres undefined), the T/C by setting is: (dose: 4.4 mg/kg/injection, schedule: Q01DX009 (ip), vehicle: saline) 109 % of control; (dose: 6.6 mg/kg/injection, schedule: Q01DX009 (ip), vehicle: saline) 109 % of control; (dose: 10.0 mg/kg/injection, schedule: Q01DX009 (ip), vehicle: saline) 104 % of control; (dose: 12.5 mg/kg/injection, schedule: Q04DX003 (ip), vehicle: saline) 116 % of control; (dose: 13.2 mg/kg/injection, schedule: Q01DX009 (ip), vehicle: saline) 118 % of control; (dose: 15.0 mg/kg/injection, schedule: Q01DX009 (ip), vehicle: saline) 113 % of control. Moreover, the T/C runs as follows: (dose: 20.0 mg/kg/injection, schedule: Q01DX009 (ip), vehicle: saline) 157 % of control and 180 % of control; (dose: 25.0 mg/kg/injection, schedule: Q04DX003 (ip), vehicle: saline) 100 % of control; (dose: 30.0 mg/kg/injection, schedule: Q01DX009 (ip), vehicle: saline) 150 % of control; (dose: 33.0 mg/kg/injection, schedule: Q04DX003 (ip), vehicle: saline) 121 % of control; (dose: 45.0 mg/kg/injection, schedule: Q01DX009 (ip), vehicle: saline) 90 % of control; (dose: 50.0 mg/kg/injection, schedule: Q04DX003 (ip), vehicle: saline) 113 % of control. Further, the T/C (dose: 75.0 mg/kg/injection, schedule: Q04DX003 (ip), vehicle: saline) was 169 % of control.
Regarding `CC(C)CCSc1nc(N)nc2nc[nH]c12`, the T/C is 86 % of control (dose: 100.0 mg/kg/injection, schedule: Q01DX009 (ip), vehicle: other); 100 % of control under setting [6]; 90 % of control (dose: 200.0 mg/kg/injection, schedule: Q01DX009 (ip), vehicle: other); 109 % of control under setting [7]; 109 % of control (dose: 400.0 mg/kg/injection, schedule: Q01DX009 (ip), vehicle: other); 109 % of control under setting [9].
Consider `S=C(NNc1ccccc1)NC1CCCCC1`, for which the T/C runs as follows: (dose: 100.0 mg/kg/injection, schedule: Q01DX001 (ip), vehicle: Klucel (hydroxypropylcellulose) (HPC)) 100 % of control; under setting [10], 86 % of control; under setting [11], 110 % of control; (dose: 200.0 mg/kg/injection, schedule: Q01DX001 (ip), vehicle: Klucel (hydroxypropylcellulose) (HPC)) 100 % of control; under setting [12], 90 % of control; under setting [13], 105 % of control. The T/C by setting is: (dose: 400.0 mg/kg/injection, schedule: Q01DX001 (ip), vehicle: Klucel (hydroxypropylcellulose) (HPC)) 104 % of control; under setting [14], 100 % of control; under setting [15], 110 % of control.
With `COc1ccccc1Cl`, the T/C is, setting by setting: under setting [2], 103 % of control; under setting [6], 116 % of control; under setting [3], 103 % of control; under setting [7], 104 % of control; under setting [8], 96 % of control; under setting [9], 108 % of control.
Take `CCCCN=C(N)c1ccc(NC(=O)c2ccc(C(=O)Nc3ccc(C(N)=NCCCC)cc3)cc2)cc1`: the T/C was 122 % of control (dose: 15.0 mg/kg/injection, schedule: Q04DX003 (ip), vehicle: saline with Tween-80); 154 % of control (dose: 26.0 mg/kg/injection, schedule: Q04DX003 (ip), vehicle: saline with Tween-80); 196 % of control (dose: 30.0 mg/kg/injection, schedule: Q01DX009 (ip), vehicle: saline with Tween-80); 158 % of control and 181 % of control (dose: 30.0 mg/kg/injection, schedule: Q04DX003 (ip), vehicle: saline with Tween-80); 166 % of control and 181 % of control (dose: 40.0 mg/kg/injection, schedule: Q04DX003 (ip), vehicle: saline with Tween-80); 179 % of control (dose: 45.0 mg/kg/injection, schedule: Q04DX003 (ip), vehicle: saline with Tween-80). Further, the T/C was 163 % of control and 183 % of control and 186 % of control (dose: 60.0 mg/kg/injection, schedule: Q04DX003 (ip), vehicle: saline with Tween-80); 204 % of control (dose: 90.0 mg/kg/injection, schedule: Q04DX003 (ip), vehicle: saline with Tween-80).
For `CSc1nnc(/C=C/c2ccc3c(c2)OCO3)c(=O)n1N`, the T/C reads like this: (dose: 100.0 mg/kg/injection, schedule: Q04DX002 (ip), vehicle: saline with Tween-80) 106 % of control; (dose: 200.0 mg/kg/injection, schedule: Q04DX002 (ip), vehicle: saline with Tween-80) 106 % of control.
As for `Nc1nc(CNc2ccccc2)nc(Nc2ccccc2)n1`, the T/C is 100 % of control (dose: 50.0 mg/kg/injection, schedule: Q04DX003 (ip), vehicle: saline sonified); 100 % of control under setting [4]; 105 % of control under setting [5].
As for `CCC(=O)c1ccc(OCC(O)CN2CCC(O)(c3ccccc3)CC2)cc1` (centres undefined), the T/C runs as follows: (dose: 25.0 mg/kg/injection, schedule: Q01DX009 (ip), vehicle: saline with Tween-80) 111 % of control; (dose: 25.0 mg/kg/injection, schedule: Q04DX003 (ip), vehicle: saline with Tween-80) 109 % of control; under setting [1], 103 % of control; (dose: 50.0 mg/kg/injection, schedule: Q04DX003 (ip), vehicle: saline with Tween-80) 109 % of control; under setting [2], 88 % of control; under setting [6], 104 % of control.

The values above are taken from PubChem BioAssay AID328 (DTP/NCI, 2004).
